Results: patent US11230524B2, “Myocyte enhancer factor 2 (MEF2) modulators” (STANDARD LLC, priority 2017, dated 2022)
Counter-ions that a name gives are not always drawn.

Columns and labels:
Assay type in all cases: cell-based
[1] = molecular target: MEF2D/HDAC4 protein-protein interactions (Homo sapiens (Human), UniProt Q14814); test: Mammalian two-hybrid assay, inhibition of MEF2D and HDAC4 protein interactions (luciferase reporter in HeLa cells); settings: HeLa cells co-transfected with GAL4-MEF2D, HDAC4-VP16 and Gal4Luc; overnight treatment; luciferase normalized to Renilla
MEF2D/HDAC4 protein-protein interactions, sequence (Q14814 whole entry, species assumed, the tested form may be a part): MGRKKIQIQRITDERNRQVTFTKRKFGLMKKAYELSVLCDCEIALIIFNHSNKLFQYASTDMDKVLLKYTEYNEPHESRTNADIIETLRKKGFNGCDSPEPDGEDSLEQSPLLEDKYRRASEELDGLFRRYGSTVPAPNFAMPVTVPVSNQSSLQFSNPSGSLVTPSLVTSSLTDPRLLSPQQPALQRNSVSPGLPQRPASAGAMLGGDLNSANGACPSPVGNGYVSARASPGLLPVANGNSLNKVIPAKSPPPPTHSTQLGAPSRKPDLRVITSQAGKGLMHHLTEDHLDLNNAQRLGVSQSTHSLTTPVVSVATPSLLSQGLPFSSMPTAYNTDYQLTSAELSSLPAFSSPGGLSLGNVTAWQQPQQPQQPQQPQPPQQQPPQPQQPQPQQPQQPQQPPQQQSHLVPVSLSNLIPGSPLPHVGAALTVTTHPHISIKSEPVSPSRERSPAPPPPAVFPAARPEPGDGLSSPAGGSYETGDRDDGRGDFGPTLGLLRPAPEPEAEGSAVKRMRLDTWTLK
Text: Detection of MEF2D and HDAC4 interactions. In this mammalian two-hybrid assay, HDAC4 and MEF2D proteins were used. […] Human epithelial carcinoma cells (HeLa) were co-transfected with the two DNA constructs (GAL4-MEF2D and HDAC4-VP16) and a reporter plasmid (Gal4Luc). […] MEF2D and HDAC4 protein interactions were detected as a result of the GAL4-MEF2D and HDAC4-VP16 protein complex binding a DNA promoter on the reporter plasmid (Gal4Luc) and driving cellular expression of a luciferase gene. The measured luciferase protein signal was proportional to the amount of MEF2D and HDAC4 protein interactions occurring with the cell.
The HDAC4 fragment lacked the catalytic domain so that the deacetylase activity was excluded from the assay.
Detection of inhibition of MEF2D and HDAC4 interactions. Next, the assay was used to test whether the compounds could disrupt the interactions between MEF2D and HDAC4. After co-expressing the GAL4-MEF2D and HDAC4-VP16 DNA constructs and reporter plasmid, the HeLa cells were treated with a test compound (10 μM) overnight. Cells transfected with the positive control GAL4VP16 fusion construct and reporter plasmid were also treated with the test compound (10 μM) overnight. As another control, DMSO was added (but kept below 0.2% V/V) to cells transfected with the positive GAL4VP16 fusion construct or the GAL4-MEF2D and HDAC4-VP16 DNA constructs. A luciferase assay was performed as described above according to the manufacturer's protocol (Promega). The luciferase response was normalized against the Renilla Luciferase as an internal control.
The relative activity and IC50 calculations. […] The relative activity, I, was the ratio of former to later, i.e. X/Y, expressed in percentile. […] The IC50 was the concentration of the compounds when X/Y equals 50.

[2] = molecular target: MEF2D/p300 protein-protein interactions (Homo sapiens (Human), UniProt Q14814); test: Mammalian two-hybrid assay, inhibition of MEF2D and P300 protein interactions (luciferase reporter in HeLa cells); settings: HeLa cells co-transfected with GAL4-MEF2D, P300-VP16 and Gal4Luc
MEF2D/p300 protein-protein interactions, sequence (Q14814 whole entry, species assumed, the tested form may be a part): as above
Text: Detection of MEF2D and P300 interactions. The same system that was used in Example 19 is used in here to detect MEF2D and P300 interactions. In this assay, two separate DNA constructs were made with MEF2D fused with the GAL4 DNA binding domain (GAL4-MEF2D) and P300 fused with the viral transactivator VP-16 ([…]). Human epithelial carcinoma cells (HeLa) were co-transfected with the two DNA constructs (GAL4-MEF2D and P300-VP16) and a reporter plasmid (Gal4Luc). […] MEF2D and P300 protein interactions were detected as a result of the GAL4-MEF2D and P300-VP16 protein complex binding a DNA promoter on the reporter plasmid (Gal4Luc) and driving cellular expression of a luciferase gene. The measured luciferase protein signal was proportional to the amount of MEF2D and P300 protein interactions occurring with the cell.
The relative activity and IC50 calculations. The IC50 concentrations were calculated in the same manner as described for Example 19.

[3] = system: neonatal rat ventricular myocytes (NRVMs); test: Inhibition of fetal calf serum induced cardiomyocyte hypertrophy in vitro; settings: serum-starved NRVMs, 5% FCS, myocyte size 48 hours after treatment, concentration reducing FCS-induced hypertrophy by 50%; for IC50: Rattus norvegicus, Ventricular myocyte
Description: To evaluate the ability of the test compounds to inhibit cardio myocyte hypertrophy in vitro, serum-starved neonatal rat ventricular myocytes (NRVMs) were exposed to medium with 5% Fetal Calf Serum (FCS), a powerful activator of myoctye growth (hypertrophy) and treated with one of the compounds at doses ranging from 0.2-10 μM or with the vehicle (dimethyl sulfoxide (DMSO)). Control cells received fresh media without serum. The myocyte size was determined 48 hours after treatment. The results in Table 7 show the concentrations of the test compounds required to reduce the FCS-induced hypertrophy in the NRVMs by 50% (IC50 μM).

SMILES: Nc1ccccc1NC(=O)/C=C/c1cccc(CNc2ccccc2)c1 [ST1, (E)-N-(2-aminophenyl)-3-(3-((phenylamino)methyl)phenyl)acrylamide]
- IC50 [1]: 9.4 µM
- IC50 [2]: 0.38 µM
- IC50 [3]: 0.81 µM

SMILES: CCOc1cccc(NCc2cccc(/C=C/C(=O)Nc3ccccc3N)c2)c1 [ST4, (E)-N-(2-aminophenyl)-3-(3-(((3-ethoxyphenyl)amino)methyl)phenyl)acrylamide]
- IC50 [1]: 1.07 µM
- IC50 [2]: 1.1 µM
- IC50 [3]: 4.37 µM

SMILES: Nc1ccccc1NC(=O)/C=C/c1cccc(CNc2cccc(OC3CC3)c2)c1 [ST7, (E)-N-(2-aminophenyl)-3-(3-(((3-cyclopropoxyphenyl)amino)methyl)phenyl)acrylamide]
- IC50 [1]: 1.6 µM
- IC50 [2]: 1.6 µM
- IC50 [3]: 0.46 µM

SMILES: Nc1ccccc1NC(=O)/C=C/c1cccc(CNCc2cccc(OC3CC3)c2)c1 [ST13]
- IC50 [1]: 1.52 µM
- IC50 [2]: 0.79 µM
- IC50 [3]: 0.12 µM

SMILES: Nc1ccccc1NC(=O)/C=C/c1cccc(CNCc2cccc(OC3CCC3)c2)c1 [ST14]
- IC50 [1]: 1.52 µM
- IC50 [2]: 0.94 µM
- IC50 [3]: 0.15 µM

SMILES: Cc1[nH]c2ccccc2c1CCNCc1cccc(/C=C/C(=O)Nc2ccccc2N)c1 [ST49, (E)-N-(2-aminophenyl)-3-(3-(((2-(2-methyl-1H-indol-3-yl)ethyl)amino)methyl)phenyl)acrylamide]
- IC50 [3]: 1.23 µM

SMILES: Nc1ccccc1NC(=O)/C=C/c1cccc(CNc2ccc3ccccc3c2)c1 [ST54, (E)-N-(2-aminophenyl)-3-(3-((naphthalen-2-ylamino)methyl)phenyl) Acrylamide]
- IC50 [3]: 1.16 µM

SMILES: Nc1ccccc1NC(=O)/C=C/c1cccc(CNc2ccc3ncccc3c2)c1 [ST55, (E)-N-(2-aminophenyl)-3-(3-((quinolin-6-ylamino)methyl)phenyl)acrylamide]
- IC50 [1]: 4.53 µM
- IC50 [2]: 0.51 µM
- IC50 [3]: 9.26 µM

SMILES: Nc1ccccc1NC(=O)/C=C/c1cccc(CNc2nc(C(F)(F)F)co2)c1 [ST63, (E)-N-(2-aminophenyl)-3-(3-((4-(trifluoromethyl)oxazol-2-ylamino)methyl)phenyl)acrylamide]
- IC50 [1]: 1.85 µM
- IC50 [2]: 2.73 µM
- IC50 [3]: 4.2 µM

SMILES: Cc1csc(NCc2cccc(/C=C/C(=O)Nc3ccccc3N)c2)n1 [ST66, (E)-N-(2-aminophenyl)-3-(3-((4-methylthiazol-2-ylamino)methyl)phenyl)acrylamide]
- IC50 [1]: 2.48 µM
- IC50 [2]: 1.69 µM
- IC50 [3]: 1420 µM

SMILES: CCOC(=O)NC(CCCCC(=O)Nc1ccccc1N)C(=O)Nc1cccc(OC2CC2)c1 (stereo not drawn) [ST83, ethyl (7-((2-aminophenyl)amino)-1-((3-cyclopropoxyphenyl)amino)-1,7-dioxoheptan-2-yl)carbamate]
- IC50 [1]: 0.84 µM
- IC50 [2]: 0.44 µM
- IC50 [3]: 3.85 µM

SMILES: COC(=O)NC(CCCCC(=O)Nc1ccccc1N)C(=O)Nc1cccc(SC)c1 (stereo not drawn) [ST85, methyl (7-((2-aminophenyl)amino)-1-((3-(methylthio)phenyl)amino)-1,7-dioxoheptan-2-yl)carbamate]
- IC50 [1]: 0.47 µM
- IC50 [2]: < 0.15 µM

SMILES: CCC(=O)NC(CCCCC(=O)Nc1ccccc1N)C(=O)Nc1cccc(Br)c1 (stereo not drawn) [ST89]
- IC50 [1]: 0.77 µM
- IC50 [2]: 0.071 µM

SMILES: Nc1ccccc1NC(=O)CCCCC(NC(=O)c1ccccc1)C(=O)Nc1cccc(Br)c1 (stereo not drawn) [ST92, N^7-(2-aminophenyl)-2-benzamido-N^1-(3-bromophenyl)heptanediamide]
- IC50 [1]: 0.81 µM
- IC50 [2]: 0.47 µM

SMILES: Nc1ccccc1NC(=O)CCCCC(NC(=O)c1cccnc1)C(=O)Nc1cccc(Br)c1 (stereo not drawn) [ST93, N^7-(2-aminophenyl)-N^1-(3-bromophenyl)-2-(nicotinamido)heptanediamide]
- IC50 [1]: 0.61 µM
- IC50 [2]: 1.08 µM
- IC50 [3]: 5500 µM

SMILES: COC(=O)NC(CCCCC(=O)Nc1ccccc1N)C(=O)Nc1cccc(OCC(F)(F)F)c1 (stereo not drawn) [ST102, methyl (7-((2-aminophenyl)amino)-1,7-dioxo-1-((3-(2,2,2-trifluoroethoxy)phenyl)amino)heptan-2-yl)carbamate hydrochloride]
- IC50 [1]: 0.94 µM
- IC50 [2]: 1.2 µM
- IC50 [3]: 0.71 µM

SMILES: CCOC(=O)N[C@@H](CCCCC(=O)Nc1ccccc1N)C(=O)Nc1cccc(Br)c1 [ST104, (S)-ethyl (7-((2-aminophenyl)amino)-1-((3-bromophenyl)amino)-1,7-dioxoheptan-2-yl)carbamate]
- IC50 [1]: 0.47 µM
- IC50 [2]: 0.38 µM
- IC50 [3]: 2.89 µM

SMILES: CCCC(=O)N[C@@H](CCCCC(=O)NO)C(=O)Nc1cccc(Br)c1 [ST108]
- IC50 [1]: 0.4 µM

SMILES: O=C(CCCCC(NC(=O)c1cccnc1)C(=O)Nc1cccc(Br)c1)NO (stereo not drawn) [ST109]
- IC50 [1]: 0.68 µM

SMILES: CCCC(=O)NC(CCCCC(=O)NO)C(=O)Nc1cccc(Br)c1 (stereo not drawn) [ST110]
- IC50 [1]: 0.42 µM

SMILES: O=C(CCCC[C@@H](NC(=O)c1ccccn1)C(=O)Nc1cccc(Br)c1)NO [ST111]
- IC50 [1]: 0.94 µM

SMILES: CCOC(=O)N[C@H](CCCCC(=O)NO)C(=O)Nc1cccc(Br)c1 [ST112]
- IC50 [1]: 0.61 µM

SMILES: CCOC(=O)NC(CCCCC(=O)NO)C(=O)Nc1cccc(Br)c1 (stereo not drawn) [ST113]
- IC50 [1]: 0.26 µM

SMILES: CCC(=O)CNC(CCCCC(=O)NO)C(=O)Nc1cccc(Br)c1 (stereo not drawn) [ST114]
- IC50 [1]: 1.25 µM

SMILES: CCOC(=O)NC(CCCCC(=O)Nc1ccccc1N)C(=O)Nc1nc(-c2ccncc2)cs1 (stereo not drawn) [ST115]
- IC50 [1]: 0.54 µM

SMILES: COC(=O)NC(CCCCC(=O)Nc1ccccc1N)C(=O)Nc1nc(-c2ccncc2)cs1 (stereo not drawn) [ST116, methyl (7-((2-aminophenyl)amino)-1,7-dioxo-1-((4-(pyridin-4-yl)thiazol-2-yl)amino)heptan-2-yl)carbamate]
- IC50 [1]: 0.57 µM
- IC50 [2]: 0.27 µM
- IC50 [3]: 4400 µM

SMILES: CCOC(=O)NC(CCCCC(=O)Nc1ccccc1N)C(=O)Nc1cccc2cccnc12 (stereo not drawn) [ST117]
- IC50 [1]: 0.94 µM

SMILES: CCOC(=O)NC(CCCCC(=O)Nc1ccccc1N)C(=O)Nc1ccc2ncccc2c1 (stereo not drawn) [ST118]
- IC50 [1]: 0.49 µM

SMILES: COC(=O)NC(CCCCC(=O)Nc1ccccc1N)C(=O)Nc1cccc2cccnc12 (stereo not drawn) [ST119, methyl (7-((2-aminophenyl)amino)-1,7-dioxo-1-(quinolin-8-ylamino)heptan-2-yl)carbamate]
- IC50 [1]: 0.39 µM
- IC50 [2]: 0.14 µM
- IC50 [3]: 0.079 µM

SMILES: Nc1ccccc1NC(=O)CCCCC(NC(=O)c1ccccc1)C(=O)Nc1cccnc1 (stereo not drawn) [ST120]
- IC50 [1]: 1.56 µM

SMILES: Nc1ccccc1NC(=O)CCCCC(NC(=O)c1ccccc1)C(=O)Nc1ccncc1 (stereo not drawn) [ST121]
- IC50 [1]: 2.75 µM

SMILES: Nc1ccccc1NC(=O)CCCCC(NC(=O)c1ccccn1)C(=O)Nc1cccnc1 (stereo not drawn) [ST122]
- IC50 [1]: 1.62 µM

SMILES: CCOC(=O)NC(CCCCC(=O)Nc1ccccc1N)C(=O)Nc1cccnc1 (stereo not drawn) [ST123]
- IC50 [1]: 2 µM

SMILES: CCOC(=O)NC(CCCCC(=O)Nc1ccccc1N)C(=O)Nc1cncc(OC)c1 (stereo not drawn) [ST124]
- IC50 [1]: 1.53 µM

SMILES: CCOC(=O)NC(CCCCC(=O)Nc1ccccc1N)C(=O)Nc1ccncc1 (stereo not drawn) [ST125]
- IC50 [1]: 2.44 µM

SMILES: CCOC(=O)NC(CCCCC(=O)Nc1ccccc1N)C(=O)Nc1ccccn1 (stereo not drawn) [ST126]
- IC50 [1]: 3.68 µM

SMILES: CCOC(=O)NC(CCCCC(=O)Nc1ccccc1N)C(=O)Nc1cncc(OCC)c1 (stereo not drawn) [ST127]
- IC50 [1]: 1.84 µM

SMILES: O=C(CCCC[C@@H](NC(=O)c1ccccc1)C(=O)NC1CC1)NO [ST128]
- IC50 [1]: 2.51 µM

SMILES: CCOC(=O)NC(CCCCC(=O)NCc1cncc(OCC)c1)C(=O)NCc1cncc(OCC)c1 (stereo not drawn) [ST129]
- IC50 [1]: 20 µM
- IC50 [2]: 20 µM
- IC50, inhibition of cardiomyocyte hypertrophy in vitro [3]: no inhibition
